Experimental data from publication PMC9542247 (Angewandte Chemie (International Ed. in English), 2022).
Non-standard residues stand in square brackets, D forms with d. Residues, ends and D or L forms follow the SMILES beside them. No end group written: not given here.

Test system: P450Blt (CYP1251 C3)
Experiment: Small scale enzymatic cyclisation
Assay type: biochemical, Micromonospora sp. MW-13
Details: for loss of P450Blt cyclisation activity compared to 1: fold reduction versus 1; for P450Blt-catalysed cyclisation, result in words: small scale enzymatic cyclisation, LCMS

| Compound | P450Blt-catalysed cyclisation, result in words | further results |
| --- | --- | --- |
| CSCC[C@H](N)C(=O)N[C@@H](CCCNC(=N)N)C(=O)N[C@@H](Cc1ccc(O)cc1)C(=O)N[C@@H](CC(C)C)C(=O)N[C@H](Cc1c[nH]cn1)C(=O)O [compound 17] (H-MRYL[dH]-OH) | – | conversion relative to that of 1 (relative to 1): > 10% |
| MNYLH-OH [compound 6] | – | loss of P450Blt cyclisation activity compared to 1: ≈ 2 fold |
| MRYLW [compound 24] | very effective | level of cyclisation as fraction of that of 1 (relative to 1): 2/3 |
| MRYWH-OH [compound 8] | almost totally abolished activity | – |
| MSYDH-OH [compound 7] | no further reduction in cyclisation than for 5 alone | – |
| MSYLH-OH [compound 5] | – | loss of P450Blt cyclisation activity compared to 1: ≈ 6 fold |
| RYLH-OH [compound 2] | significantly reduced activity | – |
| fMRYLH-OH [f-1] | did not affect cyclisation | – |
